# Results published in ChEMBL document CHEMBL4177661, “Improvement in aqueous solubility achieved via small molecular changes” (Bioorg Med Chem Lett, 2017).
# Assay: Solubility of the compound at pH 7.4
# Format: physicochemical
# Conditions: buffer
row,Compound,solubility
1,O=C(Nc1ccc(-c2nc(-c3ccccc3)no2)cc1)c1ccccc1,6.12 µg/mL
2,O=C(Nc1ccc(-c2nnc(-c3ccccc3)o2)cc1)c1ccccc1,5.89 µg/mL
3,O=C(Nc1ccc(-c2nc(-c3ccccc3)no2)cc1)c1ccc(F)cc1,5.23 µg/mL
4,O=C(Nc1ccc(-c2nnc(-c3ccccc3)o2)cc1)c1ccc(F)cc1,5 µg/mL

# Assay: Dissociation constant, pKa of the compound
# Format: physicochemical
# Conditions: not given
row,Compound,pKa
1,c1cnccn1 [PYRAZINE],0.7

# Assay: Solubility of the compound
# Format: physicochemical
# Conditions: not given
row,Compound,solubility
1,CCCCCCCC [OCTANE],1 µg/mL
2,C1CCCCCCC1 [CYCLOOCTANE],7 µg/mL
3,Oc1cccc2nccnc12,6600 µg/mL
4,Oc1cccc2cncnc12,1300 µg/mL
5,Oc1cccc2ccnnc12,600 µg/mL
6,C=CCCCCCC,3 µg/mL
7,c1ccc2cnccc2c1 [ISOQUINOLINE],5660 µg/mL

# Assay: physchem
# Conditions: octanol/water
# Description: Lipophilicity, log P of the compound
row,Compound,logP
1,CCCCCCCC [OCTANE],4.93
2,C1CCCCCCC1 [CYCLOOCTANE],4.07
3,"c1ccc2c(c1)CCNC2 [1,2,3,4-TETRAHYDROISOQUINOLINE]",1.71
4,c1cncnc1 [PYRIMIDINE],-0.44

# Assay: physchem
# Conditions: water
# Description: Solubility of the compound in water at 35 degC
row,Compound,solubility
1,CC(C)CCC[C@@H](C)[C@H]1CC[C@H]2[C@@H]3CC[C@H]4C[C@@H](O)CC[C@]4(C)[C@H]3CC[C@]12C,0.009 µg/mL
